Reference: publication PMC12781075, “Crosstalk between arachidonic acid metabolism and glycolysis drives integrated metabolic-inflammatory reprogramming in macrophages” (International Journal of Biological Sciences, 2026)

Tests used:
PKM2(C49S) = target: T1, PKM2(C49S) (Mus musculus, UniProt P52480, C49S); assay: ITC (much weaker than wild type); assay type: binding
T1 construct: gene Pkm; recombinant mouse PKM2 C49S (pET-28a, E. coli)

[1] = target: T2, pyruvate kinase M2 (PKM2) (Mus musculus, UniProt P52480); assay: ITC; LC/MS/MS peptide mapping of the adduct; CETSA and DARTS in lysates; assay type: binding
T2 construct: gene Pkm; recombinant mouse PKM2 (pET-28a, E. coli)
T2 sequence (P52480 whole entry): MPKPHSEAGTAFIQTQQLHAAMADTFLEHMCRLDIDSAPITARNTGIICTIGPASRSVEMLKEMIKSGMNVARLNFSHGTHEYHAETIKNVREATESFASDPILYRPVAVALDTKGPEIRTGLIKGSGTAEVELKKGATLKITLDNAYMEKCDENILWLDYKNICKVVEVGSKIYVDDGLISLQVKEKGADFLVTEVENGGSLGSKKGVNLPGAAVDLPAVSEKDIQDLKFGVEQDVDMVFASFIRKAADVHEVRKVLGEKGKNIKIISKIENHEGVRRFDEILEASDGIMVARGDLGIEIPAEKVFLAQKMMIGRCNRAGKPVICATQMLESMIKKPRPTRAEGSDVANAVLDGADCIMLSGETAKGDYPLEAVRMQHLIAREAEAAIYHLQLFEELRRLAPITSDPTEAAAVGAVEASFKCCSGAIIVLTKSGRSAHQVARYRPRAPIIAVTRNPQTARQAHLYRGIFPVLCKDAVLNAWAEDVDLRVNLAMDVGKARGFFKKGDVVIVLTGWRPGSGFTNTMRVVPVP

T1 sequence (P52480 whole entry C49S): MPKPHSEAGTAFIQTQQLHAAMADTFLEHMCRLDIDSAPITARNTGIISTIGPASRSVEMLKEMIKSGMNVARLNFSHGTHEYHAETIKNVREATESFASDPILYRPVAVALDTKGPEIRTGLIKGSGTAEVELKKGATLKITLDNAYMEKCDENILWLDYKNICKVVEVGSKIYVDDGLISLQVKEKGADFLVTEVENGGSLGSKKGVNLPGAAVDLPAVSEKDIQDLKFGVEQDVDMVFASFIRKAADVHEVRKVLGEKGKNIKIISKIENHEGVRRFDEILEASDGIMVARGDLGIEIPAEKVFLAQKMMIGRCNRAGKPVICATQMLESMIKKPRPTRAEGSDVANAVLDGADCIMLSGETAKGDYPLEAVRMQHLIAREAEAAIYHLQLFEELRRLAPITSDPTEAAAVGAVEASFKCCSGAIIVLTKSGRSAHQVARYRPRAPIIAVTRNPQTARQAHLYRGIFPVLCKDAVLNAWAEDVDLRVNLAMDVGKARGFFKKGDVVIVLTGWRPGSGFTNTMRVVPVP

**Q.** How did the Kd (PKM2(C49S)) turn out when CCCCCC(=O)/C=C/[C@@H]1[C@@H](C/C=C\CCCC(=O)O)[C@@H](O)C[C@H]1O [15-keto-PGF2α] was run?
**A.** 37.6 µM

**Q.** And the Kd [1]?
**A.** 0.918 µM
